From PubChem BioAssay AID330 (DTP/NCI, 2004)
“And” between values parts separate entries of the source, which are not always exact repeats. Equal entries are not always repeated. Toxic doses and inconclusive results are not listed.

Test system: P388 leukemia ip, CD2F1 mice, survival T/C
Test: NCI In Vivo Anticancer Drug Screen. Data for tumor model P388 Leukemia (intraperitoneal) in CD2F1 (CDF1) mice
Conditions: endpoint: median survival time, higher = longer survival
Procedure, shortened: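 Mice carrying the transplanted tumor received test compound or vehicle. Survival was recorded in each group, and the value is the treated-group measurement divided by that of the vehicle-treated control group.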

[1] = dose: 100.0 mg/kg/injection, schedule: Q01DX001 (ip), vehicle: saline with Tween-80
[2] = dose: 25.0 mg/kg/injection, schedule: Q01DX009 (ip), vehicle: saline
[3] = dose: 50.0 mg/kg/injection, schedule: Q01DX009 (ip), vehicle: saline

In the case of CCN(CC)CCNc1ccc(C)c2sc3ccccc3c(=O)c12, the T/C (dose: 6.25 mg/kg/injection, schedule: Q01DX005 (ip), vehicle: distilled water + Tween-80) is reported as 100 % of control and 106 % of control, the T/C (dose: 6.25 mg/kg/injection, schedule: Q01DX009 (ip), vehicle: water) is reported as 100 % of control and the T/C (dose: 7.8 mg/kg/injection, schedule: Q01DX005 (ip), vehicle: saline) is reported as 109 % of control. The T/C (dose: 12.5 mg/kg/injection, schedule: Q01DX005 (ip), vehicle: distilled water + Tween-80) was 101 % of control and 104 % of control and 107 % of control, the T/C (dose: 12.5 mg/kg/injection, schedule: Q01DX009 (ip), vehicle: water) was 99 % of control and the T/C (dose: 13.0 mg/kg/injection, schedule: Q01DX005 (ip), vehicle: water) was 120 % of control. The T/C (dose: 15.6 mg/kg/injection, schedule: Q01DX005 (ip), vehicle: saline) was 113 % of control, the T/C (dose: 16.2 mg/kg/injection, schedule: Q01DX005 (ip), vehicle: saline) was 107 % of control and 108 % of control and the T/C (dose: 16.2 mg/kg/injection, schedule: Q01DX005 (ip), vehicle: water) was 107 % of control. The T/C (dose: 19.4 mg/kg/injection, schedule: Q01DX005 (ip), vehicle: saline) was 102 % of control, the T/C (dose: 19.4 mg/kg/injection, schedule: Q01DX005 (ip), vehicle: water) was 109 % of control and the T/C (dose: 19.44 mg/kg/injection, schedule: Q01DX005 (ip), vehicle: saline) was 114 % of control. The T/C (dose: 21.6 mg/kg/injection, schedule: Q01DX005 (ip), vehicle: water) was 117 % of control, the T/C (dose: 25.0 mg/kg/injection, schedule: Q01DX005 (ip), vehicle: saline with Tween-80) was 114 % of control and the T/C (dose: 25.0 mg/kg/injection, schedule: Q01DX009 (ip), vehicle: water) was 100 % of control. The T/C (dose: 27.0 mg/kg/injection, schedule: Q01DX005 (ip), vehicle: saline) was 114 % of control, the T/C (dose: 27.0 mg/kg/injection, schedule: Q01DX005 (ip), vehicle: water) was 118 % of control and the T/C (dose: 32.4 mg/kg/injection, schedule: Q01DX005 (ip), vehicle: saline) was 111 % of control. The T/C (dose: 32.4 mg/kg/injection, schedule: Q01DX005 (ip), vehicle: water) was 119 % of control, the T/C (dose: 38.9 mg/kg/injection, schedule: Q04DX003 (ip), vehicle: saline) was 119 % of control and the T/C (dose: 45.0 mg/kg/injection, schedule: Q01DX005 (ip), vehicle: saline) was 124 % of control. The T/C (dose: 50.0 mg/kg/injection, schedule: Q01DX009 (ip), vehicle: water) was 115 % of control, the T/C (dose: 54.0 mg/kg/injection, schedule: Q01DX005 (ip), vehicle: saline) was 152 % of control and the T/C (dose: 54.0 mg/kg/injection, schedule: Q01DX005 (ip), vehicle: water) was 123 % of control. The T/C (dose: 62.5 mg/kg/injection, schedule: Q01DX005 (ip), vehicle: saline) was 181 % of control, the T/C (dose: 75.0 mg/kg/injection, schedule: Q01DX005 (ip), vehicle: saline) was 156 % of control and the T/C (dose: 75.0 mg/kg/injection, schedule: Q01DX005 (ip), vehicle: water) was 151 % of control. For the same molecule, the T/C (dose: 80.0 mg/kg/injection, schedule: Q01DX005 (ip), vehicle: water) was 156 % of control, the T/C (dose: 90.0 mg/kg/injection, schedule: Q01DX005 (ip), vehicle: saline) was 154 % of control and the T/C (dose: 125.0 mg/kg/injection, schedule: Q01DX005 (ip), vehicle: saline) was 166 % of control and 168 % of control. The T/C (dose: 180.0 mg/kg/injection, schedule: Q04DX003 (ip), vehicle: saline) was 168 % of control.

With CNC(=O)OC(C)C1CCCCC1OC(=O)NC (stereo unspecified) the T/C (dose: 50.0 mg/kg/injection, schedule: Q01DX005 (ip), vehicle: saline) was 100 % of control, the T/C (dose: 100.0 mg/kg/injection, schedule: Q01DX005 (ip), vehicle: saline) was 106 % of control and the T/C (dose: 200.0 mg/kg/injection, schedule: Q01DX005 (ip), vehicle: saline) was 100 % of control.

For Nc1cnccc1Nc1ccncc1, the T/C (dose: 50.0 mg/kg/injection, schedule: Q01DX001 (ip), vehicle: saline with Tween-80) was 95 % of control and the T/C [1] was 100 % of control.

For Nc1nc(N)c2c(Cl)c(CNc3ccc(C(=O)NC(CC(=O)O)CC(=O)O)cc3)ccc2n1, the T/C (dose: 1.5 mg/kg/injection, schedule: Q01DX005 (ip), vehicle: saline with Tween-80) was 155 % of control, the T/C (dose: 3.0 mg/kg/injection, schedule: Q01DX005 (ip), vehicle: saline with Tween-80) was 174 % of control and the T/C (dose: 6.0 mg/kg/injection, schedule: Q01DX005 (ip), vehicle: saline with Tween-80) was 202 % of control. The T/C (dose: 6.25 mg/kg/injection, schedule: Q01DX005 (ip), vehicle: saline with Tween-80) was 235 % of control and the T/C (dose: 12.0 mg/kg/injection, schedule: Q01DX005 (ip), vehicle: saline with Tween-80) was 275 % of control.

With CCN(CC)Cc1cc(Nc2cc(C)nc3ccc(N(C)C)cc23)ccc1O the T/C (dose: 15.0 mg/kg/injection, schedule: Q01DX005 (ip), vehicle: saline) was 91 % of control, the T/C (dose: 30.0 mg/kg/injection, schedule: Q01DX005 (ip), vehicle: saline) was 100 % of control and the T/C (dose: 60.0 mg/kg/injection, schedule: Q01DX005 (ip), vehicle: saline) was 104 % of control and 110 % of control.

With COc1cccc2c1C(=O)c1c(O)c3c(c(O)c1C2=O)C[C@@](O)(C(C)=O)C[C@@H]3OC1CC(NCC(c2ccccc2)c2ccccc2)C(O)C(C)O1 (stereo partly specified) the T/C (dose: 6.25 mg/kg/injection, schedule: Q04DX003 (ip), vehicle: water) was 100 % of control, the T/C (dose: 12.5 mg/kg/injection, schedule: Q04DX003 (ip), vehicle: water) was 101 % of control and the T/C (dose: 25.0 mg/kg/injection, schedule: Q04DX003 (ip), vehicle: water) was 105 % of control. For the same molecule, the T/C (dose: 50.0 mg/kg/injection, schedule: Q04DX003 (ip), vehicle: water) was 110 % of control and the T/C (dose: 100.0 mg/kg/injection, schedule: Q04DX003 (ip), vehicle: water) was 117 % of control.

For CCCCOC(=O)c1ccc(NC(=O)Nc2ccccc2OC)cc1, the T/C (dose: 25.0 mg/kg/injection, schedule: Q04DX003 (ip), vehicle: saline with Tween-80) was 91 % of control and the T/C (dose: 50.0 mg/kg/injection, schedule: Q04DX003 (ip), vehicle: saline with Tween-80) was 87 % of control.

In the case of CC(=O)N(Sc1ccccc1)c1ccccc1, the T/C (dose: 25.0 mg/kg/injection, schedule: Q01DX009 (ip), vehicle: saline with Tween-80) is reported as 110 % of control, the T/C (dose: 50.0 mg/kg/injection, schedule: Q01DX009 (ip), vehicle: saline with Tween-80) is reported as 106 % of control and the T/C (dose: 100.0 mg/kg/injection, schedule: Q01DX009 (ip), vehicle: saline with Tween-80) is reported as 103 % of control.

C[C@@]12CCC[C@@](C)(C(=O)O)[C@H]1CC[C@]13C[C@@H](CO)[C@@H](CC[C@H]12)C3 was tested, and the T/C (dose: 50.0 mg/kg/injection, schedule: Q01DX005 (ip), vehicle: Klucel (hydroxypropylcellulose) (HPC)) was 99 % of control, the T/C (dose: 100.0 mg/kg/injection, schedule: Q01DX005 (ip), vehicle: Klucel (hydroxypropylcellulose) (HPC)) was 90 % of control and the T/C (dose: 200.0 mg/kg/injection, schedule: Q01DX005 (ip), vehicle: Klucel (hydroxypropylcellulose) (HPC)) was 87 % of control.

In the case of O=C(Cn1c(=O)cc(Nc2ccccc2)c2ccccc21)Nc1ccccc1, the T/C [1] is reported as 94 % of control, the T/C (dose: 200.0 mg/kg/injection, schedule: Q01DX001 (ip), vehicle: saline with Tween-80) is reported as 94 % of control and the T/C (dose: 400.0 mg/kg/injection, schedule: Q01DX001 (ip), vehicle: saline with Tween-80) is reported as 94 % of control.

With Cc1nn(-c2ccccc2)c2c1C(c1ccc([N+](=O)[O-])cc1)C(C#N)=C(N)O2 (stereo unspecified) the T/C (dose: 50.0 mg/kg/injection, schedule: Q01DX009 (ip), vehicle: Klucel (hydroxypropylcellulose) (HPC)) was 102 % of control, the T/C (dose: 100.0 mg/kg/injection, schedule: Q01DX009 (ip), vehicle: Klucel (hydroxypropylcellulose) (HPC)) was 90 % of control and the T/C (dose: 200.0 mg/kg/injection, schedule: Q01DX009 (ip), vehicle: Klucel (hydroxypropylcellulose) (HPC)) was 107 % of control.

CCCC(=O)Nc1ccn(C2OC(CO)C(O)C2O)c(=O)n1 (stereo unspecified) was tested, and the T/C [2] was 99 % of control, the T/C [3] was 96 % of control and the T/C (dose: 100.0 mg/kg/injection, schedule: Q01DX009 (ip), vehicle: saline) was 94 % of control. For the same molecule, the T/C (dose: 200.0 mg/kg/injection, schedule: Q01DX009 (ip), vehicle: saline) was 96 % of control.

For CCCC(C(=O)OCCN(CC)CC)(c1ccccc1)c1ccccc1, the T/C (dose: 12.5 mg/kg/injection, schedule: Q01DX009 (ip), vehicle: saline) was 108 % of control, the T/C (dose: 12.5 mg/kg/injection, schedule: Q04DX003 (ip), vehicle: saline) was 100 % of control and the T/C [2] was 100 % of control. The T/C (dose: 25.0 mg/kg/injection, schedule: Q04DX003 (ip), vehicle: saline) was 100 % of control, the T/C [3] was 91 % of control and the T/C (dose: 50.0 mg/kg/injection, schedule: Q04DX003 (ip), vehicle: saline) was 100 % of control.

With CC(=O)c1c(N)n(C)c(=O)n(C)c1=O the T/C (dose: 1.56 mg/kg/injection, schedule: Q01DX009 (ip), vehicle: saline with Tween-80) was 101 % of control, the T/C (dose: 3.13 mg/kg/injection, schedule: Q01DX009 (ip), vehicle: saline with Tween-80) was 100 % of control and the T/C (dose: 6.25 mg/kg/injection, schedule: Q01DX009 (ip), vehicle: saline with Tween-80) was 100 % of control and 95 % of control.
